# Source: patent publication US6548472B1, “Liquid cleaning compositions comprising 2-bromo-2-nitro-1,3 propanediol” (Colgate-Palmolive Co., priority 2001, dated 2003)
# System: mixture of bacteria
# Test: D-value method test (rapid preservation screening, bacteria growth detection time by conductometry)
# Assay type: cell-based
# Conditions: FIG. 1; sodium gluconate (formula B) compared with Na4EDTA (formula A, reference)
# Source text: This D-value method test is used for rapid screening. It compares the new product to a reference which gives satisfactory result in real life conditions and which must have a formula composition as close as possible to the tested product (in this example EDTA has been replaced by sodium gluconate). The tested product and the reference are inoculated by a mixture of bacteria. Once they have been inoculated the bacteria slowly disappear due to the beneficial influence of the preservative system. The longer the contact time, the lower the residual bacteria number. The better the preservation system, the lower the residual bacteria number at a given time. The inocculated products are then sampled at different times and the samples are diluted by a nutriant which helps bacteria proliferation. The time needed to detect bacteria in the diluted sample is then measured by conductometry (bacteria growth generally leads to a increase of conductivity). The longer the detection time in sample diluted by nutrient, the lower the residual alive bacteria number after sampling, the better the preservative system.
structure (smiles),measurement,value
O=C([O-])[C@H](O)[C@@H](O)[C@H](O)[C@H](O)CO.[Na+] [sodium gluconate],D bacteria values: Myacid BT potentiator performance,superior Myacid BT potentiator
